# From BindingDB's records for patent WO2022076495 (MERCK SHARP & DOHME CORP., 2022)
# Values joined by “and” are separate entries in the source; they are usually repeats but may differ in a detail not shown here. Equal values may be shown once.
# Molecular target: T1, Diacylglycerol O-acyltransferase 2 (Homo sapiens, UniProt Q96PD7)
# T1 sequence (Q96PD7 whole entry): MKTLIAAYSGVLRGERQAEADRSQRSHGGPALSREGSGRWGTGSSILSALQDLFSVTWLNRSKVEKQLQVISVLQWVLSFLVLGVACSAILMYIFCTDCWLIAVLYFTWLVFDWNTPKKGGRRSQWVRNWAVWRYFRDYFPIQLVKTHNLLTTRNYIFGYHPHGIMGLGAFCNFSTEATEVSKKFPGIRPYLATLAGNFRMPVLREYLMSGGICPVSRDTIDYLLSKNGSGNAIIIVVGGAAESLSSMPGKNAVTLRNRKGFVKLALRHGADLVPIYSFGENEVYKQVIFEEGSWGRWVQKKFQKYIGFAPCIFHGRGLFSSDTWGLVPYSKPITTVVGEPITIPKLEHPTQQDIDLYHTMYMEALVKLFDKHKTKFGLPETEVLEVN
# Assay: DGAT2 enzymatic activity assay
# Description: DGAT2 activity was determined by measuring the amount of enzymatic product 13Ci8-triolein (13C-l,2,3-Tri(cis-9-octadecenoyl)glycerol) using the membrane prep mentioned above. The assay was carried out in ABgene 384-well assay plates in a final volume of 25 pL at rt. The assay mixture contained the following: assay buffer (100 mM Tris Cl, pH 7.0, 20 mM MgCl2, 5% ethanol), 25 pM of di olein, 5 μM of 13C oleoyl-CoA and 8 ng/pL of DGAT2 membrane.
row,IC50,Compound
1,62 nM,"CC(C)n1c(=O)n(-c2cccc(OC(F)F)c2)c2ncc(C(=O)NC3(C)CCS(=O)(=O)CC3)cc21 [WO2022076495, EXAMPLE 88]"
2,1.5 nM,"C[C@H](n1c(=O)n(-c2cc(OCC(F)F)ccc2F)c2cc(F)c(C(=O)NC3(C)CCS(=O)(=O)CC3)cc21)C(C)(C)O [WO2022076495, EXAMPLE 75a]"
3,7.9 nM,"C[C@H](n1c(=O)n(-c2cccc(OC(F)(F)C(F)F)c2)c2ccc(C(=O)NC3(C)CS(=O)(=O)C3)cc21)C(C)(C)O [WO2022076495, EXAMPLE 76b]"
4,6.6 nM,"C[C@@H](n1c(=O)n(-c2cc(OCC(F)F)ncc2F)c2ccc(C(=O)NC3(C)CCS(=O)(=O)CC3)cc21)C(C)(C)O [WO2022076495, EXAMPLE 72b]"
5,5.5 nM,"CC(C)n1c(=O)n(-c2cc(OC(F)(F)C(F)F)ncc2F)c2cc(F)c(C(=O)NC3(C)CCS(=O)(=O)CC3)cc21 [WO2022076495, EXAMPLE 118]"
6,80 nM,"C[C@@H](n1c(=O)n(-c2cccc(OC(F)(F)C(F)F)c2)c2ccc(C(=O)NC3(C)CS(=O)(=O)C3)cc21)C(C)(C)O [WO2022076495, EXAMPLE 76a]"
7,> 9990 nM,"CC(C)n1c(=O)n(-c2cccc(OC(F)F)c2)c2ccc(C(=O)NCC3(O)CCOC3)cc21 (stereo not given) [WO2022076495, EXAMPLE 62]"
8,2.6 nM,"C[C@H](n1c(=O)n(-c2cc(OCC(F)F)ccc2F)c2ccc(C(=O)NC3(C)CCS(=O)(=O)CC3)cc21)C(C)(C)O [WO2022076495, EXAMPLE 73a]"
9,9.7 nM,"CCOc1cc(-n2c(=O)n([C@@H](C)C(C)(C)O)c3cc(C(=O)NC4(C)CCS(=O)(=O)CC4)ccc32)c(F)cn1 [WO2022076495, EXAMPLE 69a]"
10,19 nM,"CC1(NC(=O)c2cc3c(cc2F)n(-c2cccc(OC(F)F)c2)c(=O)n3C2CCOCC2)CS(=O)(=O)C1 [WO2022076495, EXAMPLE 36]"
11,2.4 nM,"C[C@@H](n1c(=O)n(-c2cc(OCC(F)F)ccc2F)c2cc(F)c(C(=O)NC3(C)CCS(=O)(=O)CC3)cc21)C(C)(C)O [WO2022076495, EXAMPLE 75b]"
12,0.7 nM,"CC(n1c(=O)n(-c2cc(OC(F)F)ccc2F)c2ccc(C(=O)NC3(C)CS(=O)(=O)C3)cc21)C(C)(C)O (stereo not given) [WO2022076495, EXAMPLE 65]"
13,4.1 nM,"CC(C)n1c(=O)n(-c2cc(OC(F)F)ncc2F)c2cc(F)c(C(=O)NC3(C)CCS(=O)(=O)CC3)cc21 [WO2022076495, EXAMPLE 115]"
14,71 nM,"C[C@H](n1c(=O)n(-c2cc(OC(F)(F)F)ccc2F)c2ccc(C(=O)NC3(C)CCS(=O)(=O)CC3)cc21)C(C)(C)O [WO2022076495, EXAMPLE 71a]"
15,4.1 nM,"C[C@H](n1c(=O)n(-c2cccc(OCC(F)F)c2)c2ccc(C(=O)NC3(C)CCS(=O)(=O)CC3)cc21)C(C)(C)O [WO2022076495, EXAMPLE 68a]"
16,194 nM,"CCn1c(=O)n(-c2cccc(OC(F)F)c2)c2cc(F)c(C(=O)NC3(C)CS(=O)(=O)C3)cc21 [WO2022076495, EXAMPLE 40]"
17,13 nM,"CCOc1cc(-n2c(=O)n([C@@H](C)C(C)(C)O)c3cc(C(=O)NC4(C)CS(=O)(=O)C4)ccc32)c(F)cn1 [WO2022076495, EXAMPLE 78b]"
18,3.9 nM,"CCOc1cc(-n2c(=O)n([C@H](C)C(C)(C)O)c3cc(C(=O)NC4(C)CCS(=O)(=O)CC4)ccc32)c(F)cn1 [WO2022076495, EXAMPLE 69b]"
19,31 nM,"CC(C)n1c(=O)n(-c2cccc(OC(F)F)c2)c2cc(F)c(C(=O)N[C@H]3CCCC(F)(F)[C@H]3O)cc21 [WO2022076495, EXAMPLE 30]"
20,3.3 nM,"C[C@@H](n1c(=O)n(-c2cc(OCC(F)F)ccc2F)c2ccc(C(=O)NC3(C)CCS(=O)(=O)CC3)cc21)C(C)(C)O [WO2022076495, EXAMPLE 73b]"
21,202 nM,"CC1(NC(=O)c2cc3c(cc2F)n(-c2cccc(OC(F)F)c2)c(=O)n3CC(F)(F)F)CS(=O)(=O)C1 [WO2022076495, EXAMPLE 43]"
22,31 nM,"CCOc1cc(-n2c(=O)n(C(C)C)c3cc(C(=O)NC4(C)CS(=O)(=O)C4)ccc32)c(F)cn1 [WO2022076495, EXAMPLE 16]"
23,6.1 nM,"C[C@H](n1c(=O)n(-c2cc(OCC(F)F)ncc2F)c2cc(F)c(C(=O)NC3(C)CCS(=O)(=O)CC3)cc21)C(C)(C)O [WO2022076495, EXAMPLE 74a]"
24,6.4 nM,"C[C@H](n1c(=O)n(-c2cc(OCC(F)F)ncc2F)c2ccc(C(=O)NC3(C)CCS(=O)(=O)CC3)cc21)C(C)(C)O [WO2022076495, EXAMPLE 72a]"
25,1.6 nM,"C[C@H](n1c(=O)n(-c2cccc(OC(F)F)c2)c2ccc(C(=O)NC3(C)CCS(=O)(=O)CC3)cc21)C(C)(C)O [WO2022076495, EXAMPLE 67a]"
26,123 nM,"CCOc1cc(-n2c(=O)n([C@H](C)C(C)(C)O)c3cc(C(=O)NC4(C)CS(=O)(=O)C4)ccc32)c(F)cn1 [WO2022076495, EXAMPLE 78a]"
27,88 nM and 122 nM,"CC(C)n1c(=O)n(-c2cccc(OC(F)F)c2)c2ccc(C(=O)NC3(C)CS(=O)(=O)C3)cc21 [WO2022076495, EXAMPLE 12]"
28,74 nM,"CC(C)n1c(=O)n(-c2cc(OC(F)F)ccc2F)c2ncc(C(=O)NC3(C)CCS(=O)(=O)CC3)cc21 [WO2022076495, EXAMPLE 103]"
29,1 nM,"C[C@H](n1c(=O)n(-c2cc(OC(F)(F)F)ccc2F)c2cc(F)c(C(=O)NC3(C)CCS(=O)(=O)CC3)cc21)C(C)(C)O [WO2022076495, EXAMPLE 70a]"
30,30 nM,"C[C@@H](n1c(=O)n(-c2cc(OC(F)(F)F)ccc2F)c2cc(F)c(C(=O)NC3(C)CCS(=O)(=O)CC3)cc21)C(C)(C)O [WO2022076495, EXAMPLE 70b]"
